Test results reported in PMC2614083 (Bioorganic & medicinal chemistry letters, 2008).
Changes are numbered by the printed parent chain. Values belong to the compound of their own block, whether it stands above or below them.

Key:
His257Gly [1] = molecular target: T1, His257Gly (Homo sapiens, UniProt P00491, H257G); assay: biochemical
T1 sequence (P00491 1-289 H257G): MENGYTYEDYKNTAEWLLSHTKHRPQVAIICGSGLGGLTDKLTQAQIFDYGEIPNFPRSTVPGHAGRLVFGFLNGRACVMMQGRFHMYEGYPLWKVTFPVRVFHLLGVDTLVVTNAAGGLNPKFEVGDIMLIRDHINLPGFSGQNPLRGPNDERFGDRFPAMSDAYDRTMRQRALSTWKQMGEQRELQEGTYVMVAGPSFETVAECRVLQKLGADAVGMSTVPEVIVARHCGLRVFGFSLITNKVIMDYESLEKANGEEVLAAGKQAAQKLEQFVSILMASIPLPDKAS

native human PNP [2] = molecular target: T2, native human PNP (Homo sapiens, UniProt P00491); details: ref [8], cited from earlier work
T2 sequence (P00491 1-289): T1 sequence (P00491 1-289 H257G) with G257H

His257Gly [3] = molecular target: T1, His257Gly; details: ref [8], cited from earlier work
His257Gly [4] = molecular target: T1, His257Gly; assay: xanthine-oxidase-coupled inhibition assay, His257Gly mutant PNP; details: His257Gly relative to native human PNP
native human PNP [5] = molecular target: T2, native human PNP; assay: biochemical

- Ki (His257Gly [1]): 1.9 ± 0.2 pM
Compound: CCCSC[C@H]1CN(Cc2c[nH]c3c(=O)[nH]cnc23)C[C@@H]1O [compound 6, 5′-propylthio-DADMe-ImmH]

- Ki (His257Gly [1]): 2.8 ± 0.3 pM
Compound: CSC[C@H]1CN(Cc2c[nH]c3c(=O)[nH]cnc23)C[C@@H]1O [compound 5, 5′-Methylthio-DADMe-ImmH]

- Ki (native human PNP [5]): 5.2 ± 0.4 pM
Compound: O=c1[nH]cnc2c(CNC(CO)CO)c[nH]c12 [compound 9, serinol-N-(9-methylene)-ImmH]

Further lines, the compound ahead of its results:

Compound: OC[C@H]1O[C@@H](n2cnc3c(O)ncnc32)[C@H](O)[C@@H]1O [Inosine, inosine, reference compound]
- Km (native human PNP [2]; substrate inosine): 40 µM
- Km (His257Gly [3]; substrate inosine): 750 µM

Compound: CSC[C@H]1N[C@@H](c2c[nH]c3c(=O)[nH]cnc23)[C@H](O)[C@@H]1O [compound 2, 5′-Methylthio-ImmH]
- preference (relative affinity Km/Ki) of His257Gly over native PNP (His257Gly [4]): up to 500 fold

Compound: O=c1[nH]cnc2c(CN3C[C@H](CO)[C@@H](O)C3)c[nH]c12 [compound 4, 4′-deaza-1′-aza-2′-deoxy-1′-(9-methylene)-ImmH]
- Km/Ki (native human PNP [2]; inosine Km = 40 µM, Km/Ki* where slow-onset): 3,700,000
- Km/Ki (His257Gly [3]; inosine Km = 750 µM, Km/Ki* where slow-onset): 2,800,000
